Target: T1, MfpB (Mycobacterium fluoroquinolone resistance protein B) (Mycolicibacterium smegmatis, UniProt A0QSX9)
T1 sequence (A0QSX9 1-193): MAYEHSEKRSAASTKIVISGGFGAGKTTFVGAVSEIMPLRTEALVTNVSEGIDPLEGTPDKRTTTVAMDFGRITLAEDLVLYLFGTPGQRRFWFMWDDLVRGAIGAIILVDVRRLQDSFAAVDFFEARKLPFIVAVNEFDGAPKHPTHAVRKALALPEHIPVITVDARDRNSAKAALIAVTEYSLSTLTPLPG
Experiment: isothermal titration calorimetry
Format: binding

Compound	Kd [nM]
Nc1nc2c(ncn2[C@@H]2O[C@H](COP(=O)(O)OP(=O)(O)O)[C@@H](O)[C@H]2O)c(=O)[nH]1 [GDP]	10.5 ± 2.9
Nc1nc2c(ncn2[C@@H]2O[C@H](COP(=O)(O)OP(=O)(O)OP(O)(O)=S)[C@@H](O)[C@H]2O)c(=O)[nH]1 [GTP-γ-S]	11.8 ± 3.2
